According to patent publication US7375058B2, “Herbicidal mixtures based on 3-phenyluracils” (priority 2002, dated 2008):

Key:
AMARE = assay: Greenhouse post-emergence herbicidal action against AMARE; type: in vivo, Amaranthus retroflexus
Excerpt: (§1) For the post-emergence treatment, the test plants were first grown to a height of 3 to 20 cm, depending on the plant habit, and only then treated. Here, the herbicidal compositions were suspended or emulsified in water as distribution medium and sprayed using finely distributing nozzles
(§2) The respective components A and B and/or C were formulated as 10% by weight strength emulsion concentrate and introduced to the spray liquor with the amount of solvent system used for applying the active compound. In the examples, the solvent used was water.
(§3) The test period extended over 21 days. During this time, the plants were tended, and their response to the treatments with active compound was evaluated.
(§4) The evaluation for the damage caused by the chemical compositions was carried out using a scale from 0 to 100%, compared to the untreated control plants. Here, 0 means no damage and 100 means complete destruction of the plants.
(§5) In the examples below, the value E which is to be expected if the activity of the individual compounds is just additive was calculated using the method of S. R. Colby (1967) “Calculating synergistic and antagonistic responses of herbicide combinations”, Weeds 15, p. 22 ff. E=X+Y−([…]) where • X=effect in percent using active compound A at an application rate a; • Y=effect in percent using active compound B at an application rate b; • E=expected effect (in %) of A+B at application rates a+b.
(§6) If the observed effect is higher than the value E calculated according to Colby, a synergistic effect is present.

ABUTH = assay: Greenhouse post-emergence herbicidal action against ABUTH; type: in vivo, Abutilon theophrasti; settings: 21 days
Excerpt: as §1, §2, §3, §4, §5, §6

GALAP = assay: Greenhouse post-emergence herbicidal action against GALAP; type: in vivo, Galium aparine; settings: 21 days
Excerpt: as §1, §2, §3, §4, §5, §6

AVEFA = assay: Greenhouse post-emergence herbicidal action against AVEFA; type: in vivo, Avena fatua
Excerpt: as §1, §2, §3, §4, §5, §6

POLPE = assay: Greenhouse post-emergence herbicidal action against POLPE; type: in vivo, Polygonum persicaria; settings: 21 days
Excerpt: as §1, §2, §3, §4, §5, §6

BIDPI = assay: Greenhouse post-emergence herbicidal action against BIDPI; type: in vivo, Bidens pilosa
Excerpt: as §1, §2, §3, §4, §5, §6

POAPR = assay: Pre-emergence herbicidal action against POAPR; type: in vivo, Poa pratensis; settings: 21 days
Protocol: as §4
(§7) In the examples below, the mixtures were applied by the pre-emergence method. To this end, the test plants were initially sown and covered with a thin layer of soil. Afterward (i.e. prior to the germination of the test plants), the mixtures according to the invention were sprayed onto the soil as an aqueous spray liquor at the stated application rate. As in the post-emergence method described above, the test period was 21 days. The damage was then evaluated as described above using a scale from 0 to 100% damage in comparison to untreated control plants (0% damage).
(§8) A safener action is present if the damage to the crop plant caused by using a mixture according to the invention which contains a safener C) is less than the damage caused when active compound A or active compounds A and B are used without safener.

BRAPL = assay: Greenhouse post-emergence herbicidal action against BRAPL; type: in vivo, Brachiaria plantaginea; settings: 21 days
Excerpt: as §1, §2, §3, §4, §5, §6

ECHCG = assay: Greenhouse post-emergence herbicidal action against ECHCG; type: in vivo, Echinochloa crus-galli; settings: 21 days
Excerpt: as §1, §2, §3, §4, §5, §6

COMBE = assay: Greenhouse post-emergence herbicidal action against COMBE; type: in vivo, Commelina benghalensis; settings: 21 days
Excerpt: as §1, §2, §3, §4, §5, §6

TRFPR = assay: Pre-emergence herbicidal action against TRFPR; type: in vivo, Trifolium pratense; settings: 21 days
Protocol: as §4, §7, §8

TRZAW = assay: Pre-emergence safener action (crop damage) in TRZAW; type: in vivo, Triticum aestivum (Winter wheat); settings: 21 days
Protocol: as §4, §7, §8

ALOMY = assay: Greenhouse post-emergence herbicidal action against ALOMY; type: in vivo, Alopecurus myosuroides; settings: 21 days
Excerpt: as §1, §2, §3, §4, §5, §6

[1] = I.1 0.49 g/ha and/or b14.1 7.81 g/ha
[2] = I.1 0.98 g/ha and/or b14.1 15.63 g/ha
[3] = I.1 1.95 g/ha and/or b10.1 125 g/ha
[4] = I.1 3.91 g/ha and/or b10.1 250 g/ha
[5] = I.7 200 g/ha and/or c.1 200 g/ha
[6] = I.7 400 g/ha and/or c.1 400 g/ha
[7] = application rate g/ha: I.7 1.95, b3.2 62.5
[8] = application rate g/ha: I.7 3.91, b3.2 125
[9] = application rate g/ha: I.7 1.95, b13.1 500
[10] = application rate g/ha: I.7 3.91, b13.1 1000
[11] = I.8 200 g/ha and/or c.1 200 g/ha
[12] = I.8 400 g/ha and/or c.1 400 g/ha
[13] = application rate g/ha: I.8 0.98, b5.1 7.81
[14] = application rate g/ha: I.8 1.95, b5.1 15.63

With `CN(C)S(=O)(=O)NC(=O)c1cc(-n2c(=O)cc(C(F)(F)F)n(C)c2=O)c(F)cc1Cl` [I.1] the “Herbicidal action against AMARE found” value (AMARE; [1]) was 60%, the “Herbicidal action against AMARE found” value (AMARE; [2]) was 60% and the “Herbicidal action against ABUTH found” value (ABUTH; application rate g/ha: I.1 1.95, b1.2 31.25) was 20%. For the same compound, the “Herbicidal action against ABUTH found” value (ABUTH; application rate g/ha: I.1 3.91, b1.2 62.5) was 30%, the “Herbicidal action against GALAP found” value (GALAP; application rate g/ha: I.1 1.95, b1.1 62.5) was 20% and the “Herbicidal action against GALAP found” value (GALAP; application rate g/ha: I.1 1.95, b1.3 + c.1 62.5 + 67.5) was 50%. The “Herbicidal action against GALAP found” value (GALAP; application rate g/ha: I.1 3.91, b1.1 125) was 20%, the “Herbicidal action against GALAP found” value (GALAP; application rate g/ha: I.1 3.91, b1.3 + c.1 125 + 135.9) was 60% and the “Herbicidal action against AVEFA found” value (AVEFA; 21 days, application rate g/ha: I.1 0.98, b9.1 125) was 5%. For the same compound, the “Herbicidal action against AVEFA found” value (AVEFA; 21 days, application rate g/ha: I.1 1.95, b9.1 250) was 10%, the “Herbicidal action against AVEFA found” value (AVEFA; [3]) was 10% and the “Herbicidal action against AVEFA found” value (AVEFA; [4]) was 10%. For the same compound, the “Herbicidal action against POLPE found” value (POLPE; application rate g/ha: I.1 0.49, b4.1 0.98) was 10%, the “Herbicidal action against POLPE found” value (POLPE; application rate g/ha: I.1 0.98, b4.1 1.95) was 25% and the “Herbicidal action against BIDPI found” value (BIDPI; [1]) was 20%. For the same compound, the “Herbicidal action against BIDPI found” value (BIDPI; [2]) was 30%, the “Herbicidal action against BIDPI found” value (BIDPI; [3]) was 40% and the “Herbicidal action against BIDPI found” value (BIDPI; [4]) was 50%.

In the case of `CC(C)N(C)S(=O)(=O)NC(=O)c1cc(-n2c(=O)cc(C(F)(F)F)n(C)c2=O)c(F)cc1Cl` [I.7], the “Herbicidal action against POAPR” value (POAPR; [5]) is reported as 98%, the “Herbicidal action against POAPR” value (POAPR; [6]) is reported as 98% and the “Herbicidal action against ABUTH found” value (ABUTH; application rate g/ha: I.7 0.98, b3.3 31.25) is reported as 0%. The “Herbicidal action against ABUTH found” value (ABUTH; application rate g/ha: I.7 0.98, b3.4 31.25) was 0%, the “Herbicidal action against ABUTH found” value (ABUTH; application rate g/ha: I.7 1.95, b3.3 62.5) was 30% and the “Herbicidal action against ABUTH found” value (ABUTH; application rate g/ha: I.7 1.95, b3.4 62.5) was 30%. For the same compound, the “Herbicidal action against BRAPL found” value (BRAPL; [7]) was 40%, the “Herbicidal action against BRAPL found” value (BRAPL; [8]) was 60% and the “Herbicidal action against AVEFA found” value (AVEFA; 21 days, application rate g/ha: I.7 1.95, b3.1 62.5) was 10%. For the same compound, the “Herbicidal action against AVEFA found” value (AVEFA; 21 days, application rate g/ha: I.7 1.95, b6.1 125) was 10%, the “Herbicidal action against AVEFA found” value (AVEFA; 21 days, application rate g/ha: I.7 1.95, b7.1 250) was 10% and the “Herbicidal action against AVEFA found” value (AVEFA; 21 days, application rate g/ha: I.7 3.91, b3.1 125) was 15%. For the same compound, the “Herbicidal action against AVEFA found” value (AVEFA; 21 days, application rate g/ha: I.7 3.91, b6.1 250) was 15%, the “Herbicidal action against AVEFA found” value (AVEFA; 21 days, application rate g/ha: I.7 3.91, b7.1 500) was 15% and the “Herbicidal action against ECHCG found” value (ECHCG; [7]) was 0%. The “Herbicidal action against ECHCG found” value (ECHCG; [8]) was 30%, the “Herbicidal action against COMBE found” value (COMBE; [9]) was 0% and the “Herbicidal action against COMBE found” value (COMBE; [10]) was 0%. For the same compound, the “Herbicidal action against POLPE found” value (POLPE; application rate g/ha: I.7 1.95, b3.1 62.5) was 0%, the “Herbicidal action against POLPE found” value (POLPE; application rate g/ha: I.7 1.95, b7.1 250) was 0% and the “Herbicidal action against POLPE found” value (POLPE; [9]) was 0%. For the same compound, the “Herbicidal action against POLPE found” value (POLPE; application rate g/ha: I.7 3.91, b3.1 125) was 25%, the “Herbicidal action against POLPE found” value (POLPE; application rate g/ha: I.7 3.91, b7.1 500) was 25% and the “Herbicidal action against POLPE found” value (POLPE; [10]) was 25%. For the same compound, the “Herbicidal action against TRFPR” value (TRFPR; [5]) was 100%, the “Herbicidal action against TRFPR” value (TRFPR; [6]) was 100% and the “Damage to crop plant TRZAW” value (TRZAW; [5]) was 10%. The “Damage to crop plant TRZAW” value (TRZAW; [6]) was 35%.

`CC(C)N(C)S(=O)(=O)NC(=O)c1cc(-n2c(=O)cc(C(F)(F)F)n(N)c2=O)c(F)cc1Cl` [I.8] was tested, and the “Herbicidal action against POAPR” value (POAPR; [11]) was 98%, the “Herbicidal action against POAPR” value (POAPR; [12]) was 100% and the “Herbicidal action against BRAPL found” value (BRAPL; [13]) was 30%. For the same compound, the “Herbicidal action against BRAPL found” value (BRAPL; [14]) was 40%, the “Herbicidal action against ECHCG found” value (ECHCG; application rate g/ha: I.8 1.95, b5.2 31.25) was 20% and the “Herbicidal action against ECHCG found” value (ECHCG; application rate g/ha: I.8 3.91, b5.2 62.5) was 40%. The “Herbicidal action against ALOMY found” value (ALOMY; application rate g/ha: I.8 0.49, b2.1 7.81) was 5%, the “Herbicidal action against ALOMY found” value (ALOMY; application rate g/ha: I.8 0.98, b2.1 15.63) was 10% and the “Herbicidal action against POLPE found” value (POLPE; [13]) was 10%. For the same compound, the “Herbicidal action against POLPE found” value (POLPE; [14]) was 20%, the “Herbicidal action against BIDPI found” value (BIDPI; 21 days, application rate g/ha: I.8 0.49, b2.2 7.81) was 10% and the “Herbicidal action against BIDPI found” value (BIDPI; 21 days, application rate g/ha: I.8 0.98, b2.2 15.63) was 20%. For the same compound, the “Herbicidal action against TRFPR” value (TRFPR; [11]) was 100%, the “Herbicidal action against TRFPR” value (TRFPR; [12]) was 100% and the “Damage to crop plant TRZAW” value (TRZAW; [11]) was 30%. For the same compound, the “Damage to crop plant TRZAW” value (TRZAW; [12]) was 65%.
